# System: rice seedlings
# Test: 4,5-dimethylthiazole seed soaking: rice seedling dry matter mass and chlorophyll content
# Assay type: in vivo, rice (Heliangyou 332)
# Details: for Root System Biomass / Shoot Part Biomass / Total Biomass / Total Chlorophyll Content: 30 days of seedling cultivation; for Total Chlorophyll Content: leaves; for Root System Relative Value / Shoot Part Relative Value / Total Chlorophyll Content Relative Value / Total Relative Value: 30 days, vs distilled water soaking
# Procedure: 4,5-dimethylthiazole of different weights were dissolved in distilled water to obtain seed soaking agents. Taking seed soaking with distilled water as a control, four seed soaking concentrations (0, 50, 100 and 200 mg/L) were set. Plump and healthy rice seeds (Heliangyou 332) were selected and sterilized with 0.5% sodium hypochlorite for 30 min, and then each seed soaking agent was added in a mass ratio of the seed soaking agent to seed of 1:20. The seeds were soaked in darkness under 28-30° C. condition for 48 h until radicle emergence. The seed soaking solutions were changed every 12 h. Rice substrate soil was loaded 2 cm away from a seedling tray opening, gently compacted, and watered with pure water to be wet. A rice seedling nursery substrate was “rice seedling nursery substrate” purchased from Guangzhou Shengsheng Agriculture Co., Ltd., with main ingredients including peat, vermiculite and yellow mud. Two seeds were sowed in each hole on a substrate surface, covered with the substrate soil again to the seedling tray opening, and watered to be wet. After 30 days of seedling cultivation, nine rice samples were taken from each treatment, divided into shoot parts and root system, which were dried and then weighed; and leaves were taken from another nine rice plants to measure chlorophyll content. […] Regarding the biomass of the shoot parts and the chlorophyll content, the seed soaking concentration 50 mg/L rendered the best effect (Table 2).
structure (smiles),measurement,setting,value
"Cc1ncsc1C [4,5-dimethylthiazole]",Root System Biomass,seed soaking 50 mg/L,8.3 mg/plant
same,Shoot Part Biomass,seed soaking 50 mg/L,80.7 mg/plant
same,Total Biomass,seed soaking 50 mg/L,89.1 mg/plant
same,Total Chlorophyll Content,seed soaking 50 mg/L,4.08 mg/g
same,Root System Relative Value,seed soaking 50 mg/L,52.6%
same,Shoot Part Relative Value,seed soaking 50 mg/L,32.3%
same,Total Chlorophyll Content Relative Value,seed soaking 50 mg/L,9.3%
same,Total Relative Value,seed soaking 50 mg/L,34.0%
same,Root System Biomass,seed soaking 100 mg/L,8.6 mg/plant
same,Shoot Part Biomass,seed soaking 100 mg/L,78.4 mg/plant
same,Total Biomass,seed soaking 100 mg/L,87.1 mg/plant
same,Total Chlorophyll Content,seed soaking 100 mg/L,3.98 mg/g
same,Root System Relative Value,seed soaking 100 mg/L,58.2%
same,Shoot Part Relative Value,seed soaking 100 mg/L,28.5%
same,Total Chlorophyll Content Relative Value,seed soaking 100 mg/L,6.7%
same,Total Relative Value,seed soaking 100 mg/L,31.0%
same,Root System Biomass,seed soaking 200 mg/L,7.8 mg/plant
same,Shoot Part Biomass,seed soaking 200 mg/L,81.1 mg/plant
same,Total Biomass,seed soaking 200 mg/L,88.9 mg/plant
same,Total Chlorophyll Content,seed soaking 200 mg/L,3.99 mg/g
same,Root System Relative Value,seed soaking 200 mg/L,42.9%
same,Shoot Part Relative Value,seed soaking 200 mg/L,32.9%
same,Total Chlorophyll Content Relative Value,seed soaking 200 mg/L,7.0%
same,Total Relative Value,seed soaking 200 mg/L,33.7%
same,"effect on biomass of the shoot parts and chlorophyll content, comparison of seed soaking concentrations",seed soaking concentration 50 mg/L,best effect
